We go through 23 molecules from patent publication US5622962A, “5α-reductase inhibitors” (priority 1995, dated 1997).

Test [1] concerns the target T1, Type I 5α-Reductase from Human Scalp (Homo sapiens, UniProt P18405).
T1 construct: Scalp punch biopsies from graft recipient sites were obtained from human hair transplant procedures; from tissue; host or cells: human scalp punch biopsies (hair transplant graft recipient sites), homogenate, 100,000×g pellet
T1 sequence (P18405 1-259): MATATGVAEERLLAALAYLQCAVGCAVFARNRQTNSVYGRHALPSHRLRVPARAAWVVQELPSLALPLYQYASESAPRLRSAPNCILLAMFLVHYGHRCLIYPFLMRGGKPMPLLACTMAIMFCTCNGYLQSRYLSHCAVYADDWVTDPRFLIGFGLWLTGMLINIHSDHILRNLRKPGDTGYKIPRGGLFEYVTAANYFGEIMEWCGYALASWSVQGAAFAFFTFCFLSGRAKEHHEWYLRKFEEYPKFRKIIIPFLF
Description: Human Type I 5α-reductase assay (conversion of [3H]-testosterone to 5α-reduced metabolites). Format: biochemical. The settings on record: 50 nM [3H]-testosterone, pH 7.5, 25°, 180 min, compared to control reaction mixtures; for inhibition at 0.3 µM: pH 7.5, 0.3 μM, read-out: percent inhibition of Type I AR; for percent inhibition of Type I AR: 0.3 μM.

The target in test [2] is T2, Type II 5α-Reductase from Human Prostate (Homo sapiens, UniProt P31213).
T2 construct: The same procedure as above was used for preparations using tissue from prostate surgery; from tissue; host or cells: human prostate tissue from surgery, homogenate, 100,000×g pellet
T2 sequence (P31213 1-254): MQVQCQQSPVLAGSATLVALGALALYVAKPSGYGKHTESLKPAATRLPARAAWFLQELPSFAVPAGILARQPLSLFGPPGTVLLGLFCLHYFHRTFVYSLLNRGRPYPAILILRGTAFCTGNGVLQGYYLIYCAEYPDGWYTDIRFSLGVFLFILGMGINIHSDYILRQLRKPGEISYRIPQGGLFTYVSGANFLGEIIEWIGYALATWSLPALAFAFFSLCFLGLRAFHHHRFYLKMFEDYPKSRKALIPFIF
Description: Human Type II 5α-reductase assay (conversion of [3H]-testosterone to 5α-reduced metabolites). Format: biochemical. Conditions: sodium acetate pH 5.5, 25°, 30 min, compared to control reaction mixtures; for inhibition at 0.3 µM: pH 5.5, 0.3 μM, read-out: percent inhibition of Type II AR; for percent inhibition of Type II AR: 0.3 μM.

The inhibition is the percentage by which the read-out fell short of the control.

Structures are written as SMILES. Values joined by “and” are separate entries in the source; they are usually repeats but may differ in a detail not shown here. Identical values can stand only once.

In the case of `CN1C(=O)CC[C@]2(C)c3ccc(C(=O)Oc4ccccc4)cc3CC[C@@H]12` [Example 145, (+)-(4aR)-(10bR)-4-methyl-8-phenoxycarbonyl-10b-methyl-1 2,3,4,4a,5,6,10b-octahydrobenzo[f]quinolin-3-one], the inhibition at 0.3 µM in test [1] stood at 85%; in test [2], 41%.

As for `CN1C(=O)CC[C@]2(C)c3ccc(C(=O)NCc4ccccc4)cc3CC[C@@H]12` [Example 146, (+)-(4aR)-(10bR)-4-methyl-8-(benzylcarboxamido)-10b-methyl-1,2,3,4,4a,5,6,10b-octahydrobenzo[f]quinolin-3-one], the figures for the inhibition at 0.3 µM in test [1] and in test [2] were 13% and 32%, respectively.

Regarding `CN1C(=O)CC[C@]2(C)c3ccc(C(=O)OC(c4ccccc4)c4ccccc4)cc3CC[C@@H]12` [Example 147, (4aR)-(10bR)-4,10b-dimethyl-8-diphenylmethoxycarbonyl-1,2,3,4,4a,5,6,10b-octahydrobenzo[f]quinolin-3-one], the inhibition at 0.3 µM in test [1] was determined as 35%; in test [2] it was 83%.

`CN1C(=O)CC[C@]2(C)c3ccc(C(=O)NC(c4ccccc4)c4ccccc4)cc3CC[C@@H]12` [Example 148, (4aR)-(10bR)-4,10b-dimethyl-8-diphenylmethylcarboxamido-1,2,3,4,4a,5,6,10b-octahydrobenzo[f]quinolin-3-one]: the results for the inhibition at 0.3 µM in test [1] and in test [2] were 2% and 12%, respectively.

For `CN1C(=O)CC[C@]2(C)c3ccc(Sc4nccs4)cc3CC[C@@H]12` [Example 149, (+)-(4aR)-(10bR)-4-methyl-8-(2-thiazoylthio)-10b-methyl-1,2,3,4,4a,5,6,10b-octahydrobenzo[f]quinolin-3-one], the inhibition at 0.3 µM in test [1] turned out to be 58%; in test [2], 33%.

Consider `CN1C(=O)CC[C@]2(C)c3ccc(Sc4nc5ccccc5o4)cc3CC[C@@H]12` [Example 150, (+)-(4aR)-(10bR)-4-methyl-8-(2-benzoxazolylthio)-10b-methyl-1,2,3,4,4a,5,6,10b-octahydrobenzo[f]quinolin-3-one], for which the inhibition at 0.3 µM in test [1] turned out to be 67%; in test [2], 69%.

Take `CN1C(=O)CC[C@]2(C)c3ccc(Sc4ncccn4)cc3CC[C@@H]12` [Example 151, (+)-(4aR)-(10bR)-4-methyl-8-(2-pyrimidinylthio)-10b-methyl-1,2,3,4,4a,5,6,10b-octahydrobenzo[f]quinolin-3-one]: the inhibition at 0.3 µM was found to be 31% in test [1] and 28% in test [2].

Regarding `CN1C(=O)CC[C@]2(C)c3ccc(Sc4cnccn4)cc3CC[C@@H]12` [Example 152, (+)-(4aR)-(10bR)-4-methyl-8-(2-pyrazinylthio)-10b-methyl-1,2,3,4,4a,5,6,10b-octahydrobenzo[f]quinolin-3-one], the inhibition at 0.3 µM came to 47% in test [1] and 10% in test [2].

On to `CN1C(=O)CC[C@]2(C)c3ccc(Sc4cnc5ccccc5n4)cc3CC[C@@H]12` [Example 153, (+)-(4aR)-(10bR)-4-methyl-8-(2-quinoxalinylthio)-10b-methyl-1,2,3,4,4a,5,6,10b-octahydrobenzo[f]quinolin-3-one], for which the inhibition at 0.3 µM in test [1] amounted to 49%; in test [2], 71%.

With `CN1C(=O)CC[C@]2(C)c3ccc(Sc4nnnn4-c4ccccc4)cc3CC[C@@H]12` [Example 154, (+)-(4aR)-(10bR)-4-methyl-8-(2-[3-phenyl]tetrazoylthio)-10b-methyl-1,2,3,4,4a,5,6,10b-octahydrobenzo[f]quinolin-3-one], the inhibition at 0.3 µM in test [1] came to 56%; in test [2] it was 25%.

With `CN1C(=O)CC[C@]2(C)c3ccc(Sc4ccc(C(F)(F)F)cn4)cc3CC[C@@H]12` [Example 155, (+)-(4aR)-(10bR)-4-methyl-8-(2-[5-trifluoromethyl]pyridylthio)-10b-methyl-1,2,3,4,4a,5,6,10b-octahydrobenzo[f]-quinolin-3-one], the inhibition at 0.3 µM in test [1] was 58%; in test [2], 60%.

In the case of `CN1C(=O)CC[C@]2(C)c3ccc(Sc4n[nH]c5ccccc45)cc3CC[C@@H]12` [Example 156, (+)-(4aR)-(10bR)-4-methyl-8-(3-indazolylthio)-10b-methyl-1,2,3,4,4a,5,6,10b-octahydrobenzo[f]quinolin-3-one], the inhibition at 0.3 µM was 71% in test [1] and 70% in test [2].

On to `CC(C)c1cccc2sc(Sc3ccc4c(c3)CC[C@H]3N(C)C(=O)CC[C@]43C)nc12` [Example 157, (+)-(4aR)-(10bR)-4-methyl-8-(2-[4-isopropyl]benzothiazolylthio)-10b-methyl-1,2,3,4,4a,5,6,10b-octahydrobenzo[f]-quinolin-3-one], for which the inhibition at 0.3 µM in test [1] is 88%; in test [2], 79%.

With `CN1C(=O)CC[C@]2(C)c3ccc(Sc4nc5ccc(Cl)cc5s4)cc3CC[C@@H]12` [Example 158, (+)-(4aR)-(10bR)-4-methyl-8-(6-chloro-2-benzothiazolylthio)-10b-methyl-1,2,3,4,4a,5,6,10b-octahydrobenzo[f]quinolin-3-one], the inhibition at 0.3 µM came out at 78% in test [1] and 63% in test [2].

For the molecule `Cc1cccc2sc(Sc3ccc4c(c3)CC[C@H]3N(C)C(=O)CC[C@]43C)nc12` [Example 159, (+)-(4aR)-(10bR)-4-methyl-8-(4-methyl-2-benzothiazolylthio)-10b-methyl-I, 2,3,4,4a,5,6,10b-octahydrobenzo[f]quinolin-3-one], the “percent inhibition of Type I AR” value in test [1] was 87%. In test [2], the “percent inhibition of Type II AR” value is on record as 83% and the inhibition at 0.3 µM was 87%.

For `CN1C(=O)CC[C@]2(C)c3ccc(Sc4nc5cc([N+](=O)[O-])ccc5s4)cc3CC[C@@H]12` [Example 160, (+)-(4aR)-(10bR)-4-methyl-8-(5-nitro-2-benzothiazolylthio)-10b-methyl-1,2,3,4,4a,5,6,10b-octahydrobenzo[f]quinolin-3-one], the inhibition at 0.3 µM in test [1] amounted to 61%; in test [2] it was 38%.

Take `COc1ccc2nc(Sc3ccc4c(c3)CC[C@H]3N(C)C(=O)CC[C@]43C)sc2c1` [Example 161, (+)-(4aR)-(10bR)-4-methyl-8-(6-methoxy-2-benzothiazolylthio)-10b-methyl-1,2,3,4,4a,5,6,10b-octahydrobenzo[f]quinolin-3-one]: the inhibition at 0.3 µM in test [1] came to 71%; in test [2] it was 51%.

In the case of `CN1C(=O)CC[C@]2(C)c3ccc(Sc4nc5c(F)cccc5s4)cc3CC[C@@H]12` [Example 162, (+)-(4aR)-(10bR)-4-methyl-8-(4-fluoro-2-benzothiazolylthio)-10b-methyl-1,2,3,4,4a,5,6,10b-octahydrobenzo[f]quinolin-3-one], the inhibition at 0.3 µM came to 79% in test [1] and 87% in test [2].

Take `CN1C(=O)CC[C@]2(C)c3ccc(Sc4nc5c(ccc6ccccc65)s4)cc3CC[C@@H]12` [Example 163, (+)-(4aR)-(10bR)-4-methyl-8-(2-naphtho<1,2-d>-thiazolylthio)-10b-methyl-1,2,3,4,4a,5,6,10b-octahydrobenzo[f]-quinolin-3-one]: the inhibition at 0.3 µM in test [1] worked out at 80%; in test [2], 86%.

Consider `CN1C(=O)CC[C@]2(C)c3ccc(Sc4nc5c(Cl)cccc5s4)cc3CC[C@@H]12` [Example 164, (+)-(4aR)-(10bR)-4-methyl-8-(4-chloro-2-benzothiazolylthio)-10b-methyl-1,2,3,4,4a,5,6,10b-octahydrobenzo[f]quinolin-3-one], for which, in test [1], the “percent inhibition of Type I AR” value is reported as 87% and the inhibition at 0.3 µM amounted to 85%. Also, in test [2], the “percent inhibition of Type II AR” value was 85% and 79%; the inhibition at 0.3 µM is 86%.

As to `CN1C(=O)CC[C@]2(C)c3ccc(Sc4nc5cc(Cl)c(Cl)cc5s4)cc3CC[C@@H]12` [Example 165, (+)-(4aR)-(10bR)-4-methyl-8-(5,6-dichloro-2-benzothiazolylthio)-10b-methyl-1,2,3,4,4a,5,6,10b-octahydrobenzo[f]-quinolin-3-one], the inhibition at 0.3 µM in test [1] is 61%; in test [2], 74%.

With `CN1C(=O)CC[C@]2(C)c3ccc(Sc4ccc([N+](=O)[O-])cn4)cc3CC[C@@H]12` [Example 166, (+)-(4aR)-(10bR)-4-methyl-8-(5-nitro-2-pyridinylthio)-10b-methyl-1,2,3,4,4a,5,6,10b-octahydrobenzo[f]quinolin-3-one], the inhibition at 0.3 µM came to 50% in test [1] and 49% in test [2].

With `CN1C(=O)CC[C@]2(C)c3ccc(Sc4ncccc4[N+](=O)[O-])cc3CC[C@@H]12` [Example 167, (+)-(4aR)-(10bR)-4-methyl-8-(3-nitro-2-pyridinylthio)-10b-methyl-1,2,3,4,4a,5,6,10b-octahydrobenzo[f]quinolin-3-one], the inhibition at 0.3 µM in test [1] amounted to 62%; in test [2] it was 31%.
